Reference: patent US10278988B2, “Reducing the proliferation of carcinoma cells by administration of a poly-oxygenated metal hydroxide” (priority 2016, dated 2019)

Test system: mammal
Settings: in vivo

poly-oxygenated aluminum hydroxide [Ox66™]
negative effects in toxicology studies: does not create any negative effects
